Experimental findings from US20220305115A1 (JANSSEN SCIENCES IRELAND UNLIMITED COMPANY, priority 2019, published 2022) are described below.

Common to all, as to format: cell-based
A short description of data set [1]: Off-target cytotoxicity, galactose-adapted HepG2 cells (Cell Titer Glo, 5 days). The settings on record: human, galactose-adapted HepG2, five days incubation, intracellular ATP, read-out: CC50 GALHEPG2 CTG 50. An excerpt: (§1) To assess potential off-target toxicity of certain compounds disclosed herein, the in vitro cytotoxicity of those compounds was profiled using a panel of 5 cell lines with various tissue origins. Compound cytotoxicity was examined in hepatoma-derived Huh-7 and HepG2 cells, prostate carcinoma-derived PC-3 cells, lymphoma derived MT-4 cells and a normal diploid lung cell line MRC-5. HepG2 and PC-3 cells used were adapted to grow in glucose-free galactose-containing medium. These cells have a relatively higher sensitivity to inhibitors of mitochondrial oxidative phosphorylation compared to the same cells maintained in standard glucose-containing culture medium (Marroquin et al., Toxicol. Sci. 2007; 97 (2):539-47). Cell viability was determined by measuring intracellular ATP levels following five days of continuous incubation with test compounds.
(§2) The human hepatoma Huh-7 cell line was obtained from ReBLikon GmbH (Mainz, Germany) {20879}. The MT-4 cell line (HTLV-1 transformed, human T lymphoblastoid cells) was obtained from the NIH AIDS Reagent program (Bathesda, Md.). The human hepatoblastoma cell line HepG2, human prostate carcinoma cell line PC-3, and normal fetal lung derived MRC-5 cells were obtained from the American Type Culture Collection (ATCC, Manassas, Va.).
(§3) Huh-7 cells were maintained in Dulbecco's Modified Eagle Medium (DMEM) supplemented with 10% fetal bovine serum (FBS, Hyclone, Logan, Utah), 1% non-essential amino acids (Gibco, Carlsbad, Calif.). PC-3 and HepG2 cells were adapted to grow in 0.2% galactose-containing, glucose-free Dulbecco's Modified Eagle Medium (DMEM) supplemented with 10% fetal bovine serum (FBS, Hyclone, Logan, Utah), 1% non-essential amino acids (Gibco, Carlsbad, Calif.), 1% Pyruvate (Cellgro), 1% Glutamax (Invitrogen, Carlsbad, Calif.). Galactose-adapted cells were maintained in the same culture medium. MRC-5 cells were maintained in Eagle's Minimum Essential Medium (EMEM) supplemented with 10% fetal bovine serum (FBS, Hyclone, Logan, Utah). MT-4 cells were maintained in RPMI-1640 supplemented with 10% fetal bovine serum (FBS, Hyclone, Logan, Utah). All cell culture media were also supplemented with 100 Units/mL penicillin, 100 μg/mL streptomycin (Gibco).
(§4) Using a Biotek uFlow Workstation (Biotek, Winooski, Vt.), 1500 HepG2, 1500 PC-3, 500 Huh7 or 1500 MRC-5 cells in 90 μL of culture media were dispensed into each well of black polystyrene tissue culture-treated 384-well plates. Plated cells were incubated for 24 hours in an incubator at 37° C., 5% CO2 and 90% humidity. Compound serial dilutions were performed in 100% DMSO in 384-well polypropylene (high recovery) plates on a Biomek FX Workstation (Beckman Coulter, Fullerton, Calif.). After 3-fold serial dilutions, 0.4 μL of compounds were transferred into 384-well plates containing cells using a Velocity 11 system equipped with a Bravo 384-well pipettor. The DMSO concentration in the final assay plates was 0.44% (v/v). Cells were incubated with compound(s) for five days at 37° C. Puromycin (44 μM final concentration) and DMSO (0.44%, v/v) were used as a positive and negative controls, respectively
(§5) At the end of the incubation period the cytotoxicity assay was performed as follows: Media from 384-well cell culture plates were aspirated with a Biotek EL405 plate-washer (Biotek) and cells were washed with 100 μL PBS once. Twenty microliters of Cell Titer Glo (Promega, Madison, Wis.) was added to each well of the plates with a Biotek uFlow liquid dispenser. Plates were incubated for 15 minutes at room temperature before luminescence was measured with a Perkin Elmer Envision Plate Reader (Perkin Elmer, Waltham, Mass.).
(§6) CC50 values were defined as the compound concentration that caused a 50% decrease in luminescence signal, and were calculated by non-linear regression using Pipeline Pilot software by applying a four parameter fit equation (Accelrys, San Diego, Calif.). Individual CC50 values are listed as μM concentrations.
On the technique in general: In ATP-based viability assays light output follows the ATP content of the culture.

Data set [2] in a line: Off-target cytotoxicity, galactose-adapted PC-3 cells (Cell Titer Glo, 5 days). The settings on record: human, galactose-adapted PC-3, five days incubation, intracellular ATP, read-out: CC50 GALFC3 CTG 50.
Source text: as §1, with “These cells have a relatively higher sensitivity to inhibitors of mitochondrial oxidative phosphorylation compared to the same cells maintained in standard glucose-containing culture medium (Marroquin et al., Toxicol. Sci. 2007; 97 (2):539-47).” left out
(§7) The MT-4 cell line (HTLV-1 transformed, human T lymphoblastoid cells) was obtained from the NIH AIDS Reagent program (Bathesda, Md.). The human hepatoblastoma cell line HepG2, human prostate carcinoma cell line PC-3, and normal fetal lung derived MRC-5 cells were obtained from the American Type Culture Collection (ATCC, Manassas, Va.).
as §3, with “MT-4 cells were maintained in RPMI-1640 supplemented with 10% fetal bovine serum (FBS, Hyclone, Logan, Utah).” left out
as §4, with “C.” for “C. Puromycin (44 μM final concentration) and DMSO (0.44%, v/v) were used as a positive and negative controls, respectively”
as §5

A short description of data set [3]: Off-target cytotoxicity, Huh-7 cells (Cell Titer Glo, 5 days). The settings on record: human, Huh-7 cells; Huh-7, five days incubation, intracellular ATP; read-out: CC50 HEH7 CTG 50.
Source text: as §1, §2, §3, §4, §5, §6

Another data set deals with MRC-5 cells. Nature of the data set: Off-target cytotoxicity, MRC-5 cells (Cell Titer Glo, 5 days). The settings on record: MRC-5, five days incubation, intracellular ATP; read-out: CC50 MHCS CTG 50.
Source text: as §1, §2, §3, §4, §5, §6

A short description of data set [4]: Off-target cytotoxicity, MT-4 cells (Cell Titer Glo, 5 days). The settings on record: human, MT-4, five days incubation, intracellular ATP, read-out: CC50 (MT4).
Source text: as §1, with “These cells have a relatively higher sensitivity to inhibitors of mitochondrial oxidative phosphorylation compared to the same cells maintained in standard glucose-containing culture medium (Marroquin et al., Toxicol. Sci. 2007; 97 (2):539-47).” left out
as §7
as §3, with “MT-4 cells were maintained in RPMI-1640 supplemented with 10% fetal bovine serum (FBS, Hyclone, Logan, Utah).” left out
For the MT-4 cytotoxicity assay, 0.4 μL of serially diluted compounds were added to 40 μl of cell maintenance media in 384-well black, solid bottom plate using a Biomek FX workstation (Beckman Coulter). Two thousand cells in 35 μL were added to each well using a Biotek uFlow Workstation (Biotek). […] Assay plates were incubated for five days at 37° C. in an incubator set at 5% CO2 and 90% humidity. After five days, 22 μL of Cell Titer Glo reagent (Promega) was added to the assay plates with a Biotek uFlow Workstation. Plates were subsequently placed on a Perkin Elmer Envision Plate Reader for five minutes before the luminescence signal was read.

A short description of data set [5]: Off-target cytotoxicity, MRC-5 cells (Cell Titer Glo, 5 days). The settings on record: human, MRC-5 cells; MRC-5, five days incubation, intracellular ATP; read-out: CC50 MHCS CTG 50.
Source text: as §1, §2, §3, §4, §5, §6

The next data set relates to Huh-7 cells. The experiment in a line: Off-target cytotoxicity, Huh-7 cells (Cell Titer Glo, 5 days). The settings on record: Huh-7, five days incubation, intracellular ATP; read-out: CC50 HEH7 CTG 50.
Source text: as §1, §2, §3, §4, §5, §6

In general, CC50 refers to the concentration that lowers cell viability or growth by half.

`CCCC[C@@](C)(Nc1nc(N)nc2cc(F)cnc12)C(C)O` (single isomer, unassigned) [Compound 95]: the CC50 at 5 days turned out to be 28.1 µM in data set [1], 16.8 µM in data set [2], 31.3 µM in data set [3] and 44.1 µM in data set [4]. In addition, the CC50 in the data set with MRC-5 cells was determined as 44.4 µM.
For the compound `CCCC[C@H](CO)Nc1nc(N)nc2cccnc12` [Compound 15, (R)-2-((2-aminopyrido[3,2-d]pyrimidin-4-yl)amino)hexan-1-ol], the CC50 at 5 days in data set [1] was 1.23 µM; in data set [2] it was 0.69 µM; in data set [3] it was 19.7 µM; in data set [5], 7.6 µM; in data set [4] it was 8.62 µM.
In the case of `CCCC[C@H](CO)Nc1nc(N)nc2cc(F)cnc12` [Compound 44, (R)-2-((2-amino-7-fluoropyrido[3,2-d]pyrimidin-4-yl)amino)hexan-1-ol], the 50% cytotoxic concentration (CC50) at 5 days in data set [1] was 1.07 µM; in data set [2] it was 0.52 µM; in data set [3] it was 9.64 µM; in data set [5], 3.72 µM; in data set [4], 1.97 µM.
Taken in the same sequence, the figures for `CCCC[C@@](C)(CO)Nc1nc(N)nc2cc(F)cnc12` [Compound 64, (S)-2-((2-amino-7-fluoropyrido[3,2-d]pyrimidin-4-yl)amino)-2-methylhexan-1-ol] were 3.56 µM, 1.99 µM, 10.4 µM, 6.97 µM and 6.79 µM.
Consider `CCCC[C@](C)(CNC(C)=O)Nc1nc(N)nc2cc(Cl)cnc12` [Compound 65, (R)—N-(2-((2-amino-7-chloropyrido[3,2-d]pyrimidin-4-yl)amino)-2-methylhexyl)acetamide], for which the CC50 at 5 days in data set [1] was not below 44.4 µM; in data set [2], 44.4 µM; in data set [4] it was 56.6 µM. Also, the half-maximal cytotoxic concentration (CC50) in the data set with Huh-7 cells and in the data set with MRC-5 cells was 44.4 µM throughout.
As for `CCCC[C@](CO)(Nc1nc(N)nc2cccnc12)C(F)(F)F` [Compound 93, (R)-2-((2-aminopyrido[3,2-d]pyrimidin-4-yl)amino)-2-(trifluoromethyl)hexan-1-ol], the CC50 at 5 days turned out to be 7.73 µM in data set [1], 3.63 µM in data set [2], 38.9 µM in data set [5] and 18.6 µM in data set [4]. The CC50 in the data set on Huh-7 cells is 44.4 µM.
`CCCC[C@](C)(CO)Nc1nc(N)nc2cc(F)cnc12` [Compound 98, (R)-2-((2-amino-7-fluoropyrido[3,2-d]pyrimidin-4-yl)amino)-2-methylhexan-1-ol]: the half-maximal cytotoxic concentration (CC50) at 5 days in data set [1] came to 6.7 µM; in data set [2], 4.53 µM; in data set [3], 21.9 µM; in data set [5], 24.4 µM; in data set [4], 16.2 µM.
Regarding `CCCC[C@](C)(CNC(C)=O)Nc1nc(N)nc2cc(F)cnc12` [Compound 101, (R)—N-(2-((2-amino-7-fluoropyrido[3,2-d]pyrimidin-4-yl)amino)-2-methylhexyl)acetamide], the CC50 at 5 days in data set [1] is not below 44.4 µM; in data set [2], 44.4 µM; in data set [4], 56.6 µM. In addition, the CC50 in the data set with Huh-7 cells and in the data set with MRC-5 cells was 44.4 µM throughout.
As for `CCCC[C@@H](Nc1nc(N)nc2cc(F)cnc12)C(O)CF` (stereo partly drawn) [Compound 102, (3R)-3-((2-amino-7-fluoropyrido[3,2-d]pyrimidin-4-yl)amino)-1-fluoroheptan-2-ol], the CC50 at 5 days was determined as 27.4 µM in data set [1], 19.1 µM in data set [2] and 57.1 µM in data set [4]. In addition, the cytotoxic concentration (CC50) in the data set with Huh-7 cells and in the data set with MRC-5 cells was 44.4 µM throughout.
